# Measured values: patent publication US20210386826A1, “Combination for Treating Cancer” (Pfizer Inc., priority 2018, published 2021)
# Target: IL-2Rαβ (Homo sapiens, UniProt P01589+P14784)
# Description: The term “CD-122-biased cytokine agonist” (also referred to as an interleukin-2 receptor beta (ILRβ), selective agonist) as used herein, refers to an agonist that has a greater affinity for binding to IL-2Rβ than to IL-2Rαβ.
# Sequence of IL-2Rαβ (P01589 22-240 limits assumed): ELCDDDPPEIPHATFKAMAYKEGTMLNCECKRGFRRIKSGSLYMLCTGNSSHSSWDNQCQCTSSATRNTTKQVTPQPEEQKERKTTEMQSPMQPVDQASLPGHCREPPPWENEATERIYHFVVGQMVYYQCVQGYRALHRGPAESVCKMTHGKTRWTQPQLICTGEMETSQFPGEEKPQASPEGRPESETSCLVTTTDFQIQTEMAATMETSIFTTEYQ
# Sequence of IL-2Rαβ (P14784 27-240 limits assumed): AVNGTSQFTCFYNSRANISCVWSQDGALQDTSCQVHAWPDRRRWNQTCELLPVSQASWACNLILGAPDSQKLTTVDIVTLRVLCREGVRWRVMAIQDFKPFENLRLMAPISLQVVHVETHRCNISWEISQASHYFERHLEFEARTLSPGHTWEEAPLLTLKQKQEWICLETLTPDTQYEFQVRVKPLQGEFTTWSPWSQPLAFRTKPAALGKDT
substance,measurement,value
"(2,7-(bis-methoxyPEG10kD-carboxyamide)(9H-fluorene-9-yl)methyl N-carbamate)6avg interleukin-2 [bempegaldesleukin]",decrease in affinity to IL-2Rαβ relative to IL-2,~60 fold
